ChEMBL document CHEMBL1201862, “PubChem BioAssay data set” (2004)
Calls of active or inactive are those of the source.

What was measured:
[1] = target: Glucose-6-phosphate 1-dehydrogenase (Homo sapiens, UniProt P11413); assay: human G6PD enzyme inhibitors, dose response, selectivity assay for P. falciparum G6PD inhibitor project, biochemical, fluorescence (AID 504792); type: functional
[2] = target: T1, Mannose-6-phosphate isomerase (Homo sapiens, UniProt P34949); assay: PMI enzyme inhibitors, confirmation, biochemical, fluorescence intensity (AID 1535)
T1 sequence (P34949 whole entry): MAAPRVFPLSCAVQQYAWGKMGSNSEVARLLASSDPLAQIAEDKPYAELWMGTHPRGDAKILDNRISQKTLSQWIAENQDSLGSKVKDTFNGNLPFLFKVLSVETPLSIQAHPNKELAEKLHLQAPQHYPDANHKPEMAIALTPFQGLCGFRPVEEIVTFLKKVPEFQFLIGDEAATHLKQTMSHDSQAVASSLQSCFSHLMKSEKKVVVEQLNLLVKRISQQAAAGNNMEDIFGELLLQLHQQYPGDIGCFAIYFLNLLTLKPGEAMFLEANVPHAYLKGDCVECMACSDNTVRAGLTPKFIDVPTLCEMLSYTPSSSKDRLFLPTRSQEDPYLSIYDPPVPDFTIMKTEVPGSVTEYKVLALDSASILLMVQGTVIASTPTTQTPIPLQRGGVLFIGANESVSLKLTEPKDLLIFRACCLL

Vero = assay: cells; type: functional; conditions: Chlorocebus sabaeus
[3] = target: T1, Mannose-6-phosphate isomerase; assay: human PMI inhibitors, high substrate, primary screen, biochemical, fluorescence intensity, high mannose 6-phosphate (AID 1220)
Phosphomannomutase 2 = Phosphomannomutase 2 (Homo sapiens, UniProt O15305); assay: Counter screen SAR assay for PMM2 inhibitors via a fluorescence intensity assay. [Related pubchem assays (depositor defined):AID1545, AID1574]
Phosphomannomutase 2, sequence (O15305 whole entry): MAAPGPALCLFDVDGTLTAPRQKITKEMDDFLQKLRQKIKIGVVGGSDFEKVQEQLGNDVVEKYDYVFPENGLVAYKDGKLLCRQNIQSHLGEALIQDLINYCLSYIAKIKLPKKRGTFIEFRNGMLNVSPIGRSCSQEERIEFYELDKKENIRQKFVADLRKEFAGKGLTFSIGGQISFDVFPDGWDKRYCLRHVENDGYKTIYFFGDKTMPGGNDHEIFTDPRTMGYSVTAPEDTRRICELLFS

[4] = target: Eukaryotic translation initiation factor 4E (Mus musculus, UniProt P63073); assay: eIF4E–eIF4G protein interaction inhibitors, dose response, biochemical, TR-FRET (AID 855); type: functional;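 further: potency for disrupting eIF4E binding to eIF4GI seen as loss of FRET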
Large T antigen = Large T antigen (Simian virus 40, UniProt P03070); type: functional, Betapolyomavirus macacae;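 further: Confirmatory-stage PubChem screen for compounds that inhibit SV40 T antigen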
Large T antigen, sequence (P03070 whole entry): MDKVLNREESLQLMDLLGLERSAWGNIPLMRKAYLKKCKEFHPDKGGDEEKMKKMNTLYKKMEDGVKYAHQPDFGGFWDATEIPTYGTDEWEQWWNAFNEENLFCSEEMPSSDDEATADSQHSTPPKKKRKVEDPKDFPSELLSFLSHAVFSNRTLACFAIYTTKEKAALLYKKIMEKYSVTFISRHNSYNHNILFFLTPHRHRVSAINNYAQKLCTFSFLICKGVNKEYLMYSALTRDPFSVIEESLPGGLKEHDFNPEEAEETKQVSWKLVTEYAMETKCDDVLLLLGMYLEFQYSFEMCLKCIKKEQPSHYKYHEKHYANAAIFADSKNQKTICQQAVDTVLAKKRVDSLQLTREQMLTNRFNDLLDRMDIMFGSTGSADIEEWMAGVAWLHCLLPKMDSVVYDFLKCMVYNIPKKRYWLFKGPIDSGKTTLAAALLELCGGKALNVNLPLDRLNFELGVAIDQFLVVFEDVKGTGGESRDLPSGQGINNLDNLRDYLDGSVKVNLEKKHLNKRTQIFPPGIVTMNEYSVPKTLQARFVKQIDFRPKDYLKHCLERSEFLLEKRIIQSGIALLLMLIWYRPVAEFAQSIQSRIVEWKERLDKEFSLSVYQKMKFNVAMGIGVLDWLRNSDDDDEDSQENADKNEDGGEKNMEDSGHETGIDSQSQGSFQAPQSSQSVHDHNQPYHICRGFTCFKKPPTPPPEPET

[5] = target: T2, Eukaryotic translation initiation factor 4H (Homo sapiens, UniProt Q15056); assay: human eIF4H binding inhibitors, primary screen, translation initiation inhibitor project, biochemical, uHTS, fluorescence polarization (AID 2012)
[6] = target: T2, Eukaryotic translation initiation factor 4H; assay: eIF4H inhibition in translation initiation, SAR follow-up (AID 435011); type: functional
[7] = target: T3, Polyadenylate-binding protein 1 (Homo sapiens, UniProt P11940); assay: PABP poly(A) RNA binding inhibitors, primary screen, biochemical, fluorescence polarization, uHTS (AID 2014)
T3 sequence (P11940 whole entry): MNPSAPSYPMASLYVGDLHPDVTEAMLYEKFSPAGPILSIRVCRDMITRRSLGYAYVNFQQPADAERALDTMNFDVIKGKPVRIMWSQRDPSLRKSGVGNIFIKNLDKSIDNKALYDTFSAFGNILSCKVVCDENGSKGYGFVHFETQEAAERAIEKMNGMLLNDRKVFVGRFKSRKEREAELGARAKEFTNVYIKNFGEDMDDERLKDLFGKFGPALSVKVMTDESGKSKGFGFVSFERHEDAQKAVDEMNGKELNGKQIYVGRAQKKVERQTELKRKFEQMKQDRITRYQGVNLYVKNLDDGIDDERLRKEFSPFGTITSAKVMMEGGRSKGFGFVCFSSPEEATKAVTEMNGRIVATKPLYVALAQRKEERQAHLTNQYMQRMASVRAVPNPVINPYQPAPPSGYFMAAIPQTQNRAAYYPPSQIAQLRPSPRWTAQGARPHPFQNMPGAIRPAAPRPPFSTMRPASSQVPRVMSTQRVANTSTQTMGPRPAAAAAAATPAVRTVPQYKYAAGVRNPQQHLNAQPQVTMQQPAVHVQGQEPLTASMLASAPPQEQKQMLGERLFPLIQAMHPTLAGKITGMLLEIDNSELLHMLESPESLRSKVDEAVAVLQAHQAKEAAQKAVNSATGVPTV

[8] = target: T3, Polyadenylate-binding protein 1; assay: PABP inhibition in translation initiation, SAR follow-up (AID 435018); type: functional
Streptokinase A = target: T4, Streptokinase A (Streptococcus pyogenes serotype M1, UniProt P10520); assay: S. pyogenes streptokinase expression inhibitors, potency, dose response, plasminogen activation absorbance, OD405 (AID 1914); type: functional, Streptococcus pyogenes M1 GAS;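 further: secreted streptokinase activity via plasminogen activation per viability signal from cell pellet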
T4 sequence (P10520 whole entry): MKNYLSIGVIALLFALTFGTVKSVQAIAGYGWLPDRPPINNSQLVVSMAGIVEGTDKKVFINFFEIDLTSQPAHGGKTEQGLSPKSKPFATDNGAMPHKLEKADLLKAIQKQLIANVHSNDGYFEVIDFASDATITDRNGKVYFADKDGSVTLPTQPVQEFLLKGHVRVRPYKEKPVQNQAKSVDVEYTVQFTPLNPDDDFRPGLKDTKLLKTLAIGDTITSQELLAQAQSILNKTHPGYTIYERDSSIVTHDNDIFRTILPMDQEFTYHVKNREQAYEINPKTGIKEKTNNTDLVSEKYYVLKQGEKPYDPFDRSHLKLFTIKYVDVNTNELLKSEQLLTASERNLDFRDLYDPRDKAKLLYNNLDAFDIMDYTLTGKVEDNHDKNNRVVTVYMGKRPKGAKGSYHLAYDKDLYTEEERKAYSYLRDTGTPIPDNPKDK

[9] = target: G-protein coupled receptor 35 (Homo sapiens, UniProt Q9HC97); assay: GPR35 antagonists blocking zaprinast-driven arrestin recruitment, primary screen, imaging, U2OS, beta-arrestin-GFP, zaprinast agonist (AID 2058); type: functional;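 further: antagonist potency meaning inhibition of agonist-induced arrestin redistribution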
G-protein coupled receptor 35, sequence (Q9HC97 whole entry): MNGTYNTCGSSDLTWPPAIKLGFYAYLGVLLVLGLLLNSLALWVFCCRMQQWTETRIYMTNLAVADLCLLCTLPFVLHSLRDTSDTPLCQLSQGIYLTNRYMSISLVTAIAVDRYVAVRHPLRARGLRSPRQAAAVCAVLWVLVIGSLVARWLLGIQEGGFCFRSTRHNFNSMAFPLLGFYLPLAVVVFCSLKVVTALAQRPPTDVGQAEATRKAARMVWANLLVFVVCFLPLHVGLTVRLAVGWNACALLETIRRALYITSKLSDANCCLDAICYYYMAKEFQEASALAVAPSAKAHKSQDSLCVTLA

Streptococcus = assay: Group A Streptococcus viability loss, dose response, counter-screen for streptokinase expression inhibitor project, luminescence, BacTiterGlo (AID 1915); type: functional, organism-based;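 further: potency for reduction of bacterial viability or growth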
[10] = test system: Streptococcus sp. 'group A'; assay: growth inhibition of control SK(-) GAS strain, dose response, counter-screen for streptokinase expression inhibitor project, luminescence, kanamycin, BacTiterGlo, confirmation (AID 1900); type: functional, organism-based
Beta-galactosidase = Beta-galactosidase (Escherichia coli, UniProt Q8VNN2); assay: beta-galactosidase enzyme inhibitors and activators, dose response, artefact control for CCR6 antagonist project, biochemical, E. coli enzyme, set 3 (AID 504712); type: functional
Beta-galactosidase, sequence (Q8VNN2 whole entry): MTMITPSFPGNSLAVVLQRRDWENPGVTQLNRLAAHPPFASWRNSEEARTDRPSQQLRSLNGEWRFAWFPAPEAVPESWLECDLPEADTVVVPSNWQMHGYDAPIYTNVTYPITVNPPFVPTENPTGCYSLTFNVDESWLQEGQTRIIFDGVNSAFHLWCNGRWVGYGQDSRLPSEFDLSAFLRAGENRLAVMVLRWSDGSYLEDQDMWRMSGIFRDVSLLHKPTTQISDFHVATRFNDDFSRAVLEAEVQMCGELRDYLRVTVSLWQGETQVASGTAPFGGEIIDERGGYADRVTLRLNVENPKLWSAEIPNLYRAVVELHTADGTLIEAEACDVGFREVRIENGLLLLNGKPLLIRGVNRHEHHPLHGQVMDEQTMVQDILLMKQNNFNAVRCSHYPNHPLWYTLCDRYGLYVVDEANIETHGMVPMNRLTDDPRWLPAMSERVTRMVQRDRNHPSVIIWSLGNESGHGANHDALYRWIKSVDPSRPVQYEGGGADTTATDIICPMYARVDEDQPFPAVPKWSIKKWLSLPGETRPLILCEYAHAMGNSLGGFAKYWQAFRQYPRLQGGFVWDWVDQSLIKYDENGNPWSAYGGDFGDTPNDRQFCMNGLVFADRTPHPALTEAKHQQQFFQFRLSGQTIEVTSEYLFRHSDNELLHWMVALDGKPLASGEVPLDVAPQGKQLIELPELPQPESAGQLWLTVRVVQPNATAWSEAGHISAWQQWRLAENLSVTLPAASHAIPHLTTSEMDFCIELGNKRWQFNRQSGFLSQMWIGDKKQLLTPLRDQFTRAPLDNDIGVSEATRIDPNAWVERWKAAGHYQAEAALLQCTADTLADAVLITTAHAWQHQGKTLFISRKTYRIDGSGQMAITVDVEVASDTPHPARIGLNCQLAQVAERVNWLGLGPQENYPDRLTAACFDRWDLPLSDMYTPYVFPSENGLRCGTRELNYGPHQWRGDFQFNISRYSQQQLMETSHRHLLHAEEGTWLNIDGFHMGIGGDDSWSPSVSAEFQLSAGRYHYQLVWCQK

[11] = target: Heat shock protein HSP 90-alpha (Homo sapiens, UniProt P07900); type: functional, organism-based
Cytochrome P450 2C9 = Cytochrome P450 2C9 (Homo sapiens, UniProt P11712)
[12] = growth suppression of beta-catenin-knockout colon cells, dose response, cell-based, HCT116, human colon tumor (AID 1045); type: functional;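 further: HCT116 colon tumor cells with beta catenin knocked out; cells exposed to compound for 60 hours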
[13] = growth suppression of PTEN-null colon cells, dose response, cell-based, HCT116 PTEN knockout (AID 1047); type: functional;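 further: HCT116 colon tumor cells with PTEN knocked out; cells exposed to compound for 60 hours before readout; potency for loss of cell viability measured by luminescence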
[14] = Luminescence Cell-Based Dose Retest to Confirm Inhibitors of Cancer Stem Cells. [Related pubchem assays (depositor defined):AID2717, AID2721]; type: functional; conditions: Homo sapiens
Cytochrome P450 2C19 = Cytochrome P450 2C19 (Homo sapiens, UniProt P33261); assay: Cytochrome panel assay with activity outcomes. Panel member name: p450-cyp2c19 Compounds with AC50 equal or less than 10 uM are considered active; type: functional; conditions: read-out: AC50
INS1 = assay: beta cell apoptosis inhibitors, cytokine rescue, dose response, luminescence, retest (AID 449756); type: functional, cell-based; conditions: Rattus norvegicus;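 further: cell death triggered by IL-1 beta plus TNF-alpha plus IFN-gamma mixture; protective hits raise ATP signal compared with cytokine alone wells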
Trypsin = Trypsin (Sus scrofa, UniProt P00761); assay: porcine trypsin inhibitors, dose response, selectivity assay for Rce1 protease inhibitor project, biochemical, quenched peptide fluorescence, cherry-pick (AID 488789)
[15] = target: T5, Delta-type opioid receptor (Homo sapiens, UniProt P41143); assay: HTS Image-Based Screen for Agonists of the DOR Receptor. [Related pubchem assays (depositor defined):AID1777, AID1786, AID2133]; type: functional
T5 sequence (P41143 whole entry): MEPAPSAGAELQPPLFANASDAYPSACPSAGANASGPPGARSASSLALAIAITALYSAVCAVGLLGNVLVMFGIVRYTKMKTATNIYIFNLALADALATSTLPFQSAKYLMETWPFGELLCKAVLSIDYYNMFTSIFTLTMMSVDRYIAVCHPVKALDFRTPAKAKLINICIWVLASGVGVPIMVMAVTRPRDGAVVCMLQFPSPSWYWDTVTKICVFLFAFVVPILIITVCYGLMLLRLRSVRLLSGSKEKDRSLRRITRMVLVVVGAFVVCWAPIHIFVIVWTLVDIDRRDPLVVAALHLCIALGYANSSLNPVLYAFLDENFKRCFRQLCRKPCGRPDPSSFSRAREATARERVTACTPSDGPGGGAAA

[16] = target: T6, Kappa-type opioid receptor (Homo sapiens, UniProt P41145); assay: KOR agonist analogs, imaging readout, SAR follow-up, image-based (AID 2359); type: functional
T6 sequence (P41145 whole entry): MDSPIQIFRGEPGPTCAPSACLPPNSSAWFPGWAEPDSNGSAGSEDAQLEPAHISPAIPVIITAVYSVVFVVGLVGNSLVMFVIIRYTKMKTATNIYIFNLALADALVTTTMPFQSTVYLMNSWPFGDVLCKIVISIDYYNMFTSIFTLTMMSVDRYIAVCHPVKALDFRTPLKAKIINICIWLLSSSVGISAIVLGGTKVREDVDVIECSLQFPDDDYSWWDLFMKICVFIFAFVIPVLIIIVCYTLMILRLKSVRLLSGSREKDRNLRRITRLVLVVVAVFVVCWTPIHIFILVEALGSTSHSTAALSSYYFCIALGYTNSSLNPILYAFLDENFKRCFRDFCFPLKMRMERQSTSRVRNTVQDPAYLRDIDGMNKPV

Mu-type opioid receptor [17] = target: T7, Mu-type opioid receptor (Homo sapiens, UniProt P35372); assay: MOR antagonists, SAR follow-up, image-based (AID 2420); type: functional;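 further: compounds added before stimulation of receptor with agonist DAMGO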
T7 sequence (P35372 whole entry): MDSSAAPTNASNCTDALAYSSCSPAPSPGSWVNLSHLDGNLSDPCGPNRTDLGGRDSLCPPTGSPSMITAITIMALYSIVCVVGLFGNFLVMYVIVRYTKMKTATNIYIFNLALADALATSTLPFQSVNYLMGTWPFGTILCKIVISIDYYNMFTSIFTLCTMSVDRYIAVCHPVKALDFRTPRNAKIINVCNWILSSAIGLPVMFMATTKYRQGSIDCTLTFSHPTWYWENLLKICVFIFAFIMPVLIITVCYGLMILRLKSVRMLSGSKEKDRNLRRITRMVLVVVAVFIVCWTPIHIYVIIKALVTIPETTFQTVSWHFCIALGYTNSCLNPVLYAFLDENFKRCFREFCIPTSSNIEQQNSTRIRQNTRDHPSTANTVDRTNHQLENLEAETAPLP

Mu-type opioid receptor [18] = target: T7, Mu-type opioid receptor; assay: MOR agonists by imaging, SAR follow-up, image-based (AID 2352); type: functional
[19] = target: T6, Kappa-type opioid receptor; type: functional
[20] = target: T5, Delta-type opioid receptor; assay: HTS Image-Based Screen for Antagonists of the DOR Receptor. [Related pubchem assays (depositor defined):AID1777, AID1785, AID1786, AID2133]; type: functional
Mu-type opioid receptor [21] = target: T7, Mu-type opioid receptor; assay: HTS Image-Based Screen for Agonists of the MOR Receptor. [Related pubchem assays (depositor defined):AID1777, AID1785, AID1786, AID2133]; type: functional
[22] = target: T6, Kappa-type opioid receptor; assay: SAR analysis of small molecule agonists of the kappa opioid receptor via a luminescent beta-arrestin assay. [Related pubchem assays (depositor defined):AID1777, AID1786, AID1966, AID2133, AID2136, AID2348, AID2352, AID2357, AID2359, AID2370, AID2420, AID2478, AID2491, AID2492, AID2493, AID2497, AID2498, AID2500, AID449737, AID488822, AID488842]; type: functional
[23] = target: T6, Kappa-type opioid receptor; assay: KOR antagonists by imaging, SAR follow-up, image-based (AID 2348); type: functional
[24] = target: T5, Delta-type opioid receptor; assay: DOR agonists, SAR follow-up, image-based (AID 2370); type: functional
[25] = target: T6, Kappa-type opioid receptor; type: functional; remark: listed apart in the source
[26] = target: T5, Delta-type opioid receptor; assay: DOR antagonists, SAR follow-up, image-based (AID 2357); type: functional

Glucose-6-phosphate 1-dehydrogenase, sequence (P11413 whole entry): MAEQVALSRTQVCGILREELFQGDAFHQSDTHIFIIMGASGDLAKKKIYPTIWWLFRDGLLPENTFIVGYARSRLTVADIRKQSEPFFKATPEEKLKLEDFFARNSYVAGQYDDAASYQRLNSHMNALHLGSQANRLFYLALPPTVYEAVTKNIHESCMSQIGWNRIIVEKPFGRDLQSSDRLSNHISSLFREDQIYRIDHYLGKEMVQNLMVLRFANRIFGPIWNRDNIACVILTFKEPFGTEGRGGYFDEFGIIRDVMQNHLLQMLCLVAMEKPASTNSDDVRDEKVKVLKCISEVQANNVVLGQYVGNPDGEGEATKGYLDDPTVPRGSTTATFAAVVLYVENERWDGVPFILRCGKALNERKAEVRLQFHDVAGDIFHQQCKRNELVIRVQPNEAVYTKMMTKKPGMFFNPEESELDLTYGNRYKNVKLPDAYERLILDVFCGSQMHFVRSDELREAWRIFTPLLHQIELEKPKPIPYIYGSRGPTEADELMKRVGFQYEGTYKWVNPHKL

**Q.** What does the source list for `O=c1c2ccccc2sn1-c1nccs1`?
**A.** IC50 [1]: 11.3 µM (active); IC50 [2]: 2.65 µM (active); CC50 (Vero): > 25 µM (active); IC50 [3]: 42.5 µM (active); IC50 (Phosphomannomutase 2): > 100 µM (inactive); IC50 [4]: 13.5 µM (active); IC50 (Large T antigen): 12.9 µM (active)

**Q.** Which IC50 [5] does the source give for `O=C(Nc1cccc2ncccc12)c1ccc(Cl)cc1` here?
**A.** > 100 µM (inactive)

**Q.** What about the IC50 [6] of the same compound?
**A.** 6.11 µM (active)

**Q.** And the IC50 [7]?
**A.** 9.09 µM (active)

**Q.** And the IC50 [8]?
**A.** 2.79 µM (active)

**Q.** For `CCOc1ccc(N(C)c2ccc(/C=C3/SC(=S)NC3=O)cc2)cc1`, which EC50 (Streptokinase A) is on record?
**A.** > 150 µM (not active)

**Q.** What about the IC50 [9] of the same compound?
**A.** 701 nM (active)

**Q.** What about the EC50 (Streptococcus) of the same compound?
**A.** 20.7 µM (active)

**Q.** And the EC50 [10]?
**A.** 5.43 µM (active)

**Q.** What does the source list for `Cc1cccc(NC(=S)N/N=C/c2ccc([N+](=O)[O-])s2)c1`?
**A.** IC50 (Beta-galactosidase): > 66.6 µM (inactive); AC50 [11]: 15.6 µM (active); AC50 (Cytochrome P450 2C9): 1.78 µM (inconclusive); EC50 [12]: 1.95 µM (active); EC50 [13]: 3.06 µM (active); AC50 [14]: 1.84 µM (active); AC50 (Cytochrome P450 2C19): 1.12 µM (inconclusive); AC50 (INS1): 3.86 µM (active)

**Q.** With `Cc1ccc(S(=O)(=O)c2cn(C)c3cc(N4CCOCC4)c(F)cc3c2=O)cc1` as the compound, how does the AC50 (Trypsin) read?
**A.** 55.8 µM (active)

**Q.** Which EC50 [15] does the source give for `Clc1ccc(CSc2nnc(-c3ccccn3)n2Cc2ccco2)c(Cl)c1` here?
**A.** > 32 µM (inactive)

**Q.** And the EC50 [16]?
**A.** 929 nM (active)

**Q.** What about the IC50 (Mu-type opioid receptor [17]) of the same compound?
**A.** > 32 µM (inactive)

**Q.** And the EC50 (Mu-type opioid receptor [18])?
**A.** > 32 µM (inactive)

**Q.** What about the EC50 [19] of the same compound?
**A.** 1250 nM

**Q.** And the IC50 [20]?
**A.** > 32 µM (inactive)

**Q.** And the EC50 (Mu-type opioid receptor [21])?
**A.** > 32 µM (inactive)

**Q.** What about the EC50 [22] of the same compound?
**A.** 1.86 µM (active)

**Q.** And the IC50 [23]?
**A.** > 32 µM (inactive)

**Q.** And the EC50 [24]?
**A.** > 32 µM (inactive)

**Q.** And the EC50 [25]?
**A.** 2210 nM

**Q.** What about the IC50 [26] of the same compound?
**A.** > 32 µM (inactive)
